Patent US20240024280A1, “SENOTHERAPEUTIC SUBSTANCE” (BIONEXA S.R.L, priority 2020, published 2024)

System: senescent MCF7 cells
Test: Senolytic activity on doxorubicin-induced senescent MCF7 cells (crystal violet cell survival)
Format: cell-based, human
Settings: 72 h treatment; vitamin C and palmitic acid administered alone at the same doses investigated
Method: Briefly, senescence of MCF7 human mammary epithelium cells (human breast adenocarcinoma cells, ATCC® HTB-22™) was induced in vitro by treatment with doxorubicin (for 24 h), at a non-apoptotic concentration (200 nM), and subsequent cell recovery (in optimal culture medium, without treatments) for 10 days. The successful conversion to the senescent cell phenotype was confirmed by morphological changes (flattening and cell enlargement) and positivity for lysosomal beta-galactosidase (β-GAL). The SA-β-GAL (senescence-associated p-GAL) senescence assay was performed with the SA-β-Gal Staining Kit (Cell Signaling Technology, Inc., Danvers, MA). In this case, after fixation with […] for 15 min at room temperature, the senescent cells were quantified by calculating the percentage of SA-β-GAL positive cells (colored blue) present in culture, examining ≥200 cells per well with the phase contrast microscope EVOS XL Cell Imaging System (Thermo Fisher; objective, 40×). […] At the end of the treatments, cell survival was quantified by crystal violet staining. […] After further washing with water (3×), 100 μl of acetic acid (10%) were added per well and the absorbance (λ=590 nm) measured with a Synergy spectrophotometer (AHSI). […] Senolytic activity was expressed as % of senescent cells eliminated with respect to the control condition (DMSO). […]

Row | SMILES | senolytic effects (in words)
1 | CCCCCCCCCCCCCCCC(=O)O [palmitic acid] | absence of significant senolytic effects
2 | O=C1O[C@H]([C@@H](O)CO)C(O)=C1O [vitamin C, L-Ascorbic Acid] | absence of significant senolytic effects
